Measured values: patent US20190192517A1, “TREATMENT OF SQUAMOUS CELL CARCINOMAS WITH INHIBITORS OF ERK” (Kura Oncology, Inc., priority 2016, published 2019)

What follows are compounds tested against T1, ERK2 enzyme (Homo sapiens, UniProt P28482) (assay: Inhibition assay of ERK (Z'-LYTE kinase assay, Ser/Thr 3 peptide, 100 μM ATP)). Settings: in vitro.
T1 construct: purchased Life Technologies
Assay type: biochemical
Procedure: Example 9: Inhibition Assays of ERK. The inhibition of ERK activity by the compounds disclosed herein was determined using the Z′-LYTE kinase assay kit (Life Technologies) with a Ser/Thr 3 peptide substrate (Life Technologies) according to manufacturer's instructions. […] The IC50 values for the compounds were determined with 3-fold serial dilutions in duplicate. The compounds were first diluted in 1:3 dilutions in 100% DMSO at 100× the desired concentration, and then further diluted (1:25) in 20 mM HEPES buffer (Invitrogen) to make 4× solutions prior to adding to the enzyme solution. The final DMSO concentration in the assay was 1%. Final reaction volume was […] in 384-well plates. Kinase reactions were conducted for 1 hour followed by the assay development reaction (1 hour) in a 384 well plate format (20 μL/well).

T1 sequence (P28482 whole entry): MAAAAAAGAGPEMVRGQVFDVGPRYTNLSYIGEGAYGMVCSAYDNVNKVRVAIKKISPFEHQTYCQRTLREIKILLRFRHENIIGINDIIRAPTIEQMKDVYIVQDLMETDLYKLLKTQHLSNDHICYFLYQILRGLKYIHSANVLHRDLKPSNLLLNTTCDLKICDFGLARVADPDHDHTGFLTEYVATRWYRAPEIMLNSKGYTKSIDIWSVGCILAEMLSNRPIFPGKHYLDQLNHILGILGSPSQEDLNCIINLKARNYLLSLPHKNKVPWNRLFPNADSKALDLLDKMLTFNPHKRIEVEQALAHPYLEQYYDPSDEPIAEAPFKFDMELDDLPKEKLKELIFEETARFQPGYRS

IC50, < 500 nM:
Cc1cc(-c2n[nH]c3cc4c(cc23)CN([C@@H]2CN(C)C[C@H]2c2ccccc2)C(=O)N4)ccn1 (racemic) [Compound 241]
Cc1cc(-c2n[nH]c3cc4c(cc23)CN([C@@H]2CN(C)C[C@H]2c2ccccc2)C(=O)N4)cc(C)n1 (racemic) [Compound 248]
CCN1C[C@@H](N2Cc3cc4c(-c5ccnc(C)c5)n[nH]c4cc3NC2=O)[C@H](c2ccccc2)C1 (racemic) [Compound 278]
Cc1cc(-c2n[nH]c3cc4c(cc23)CN([C@@H]2CN(C(C)C)C[C@H]2c2ccccc2)C(=O)N4)ccn1 (racemic) [Compound 279]
Cc1cc(-c2n[nH]c3cc4c(cc23)CN([C@@H]2CN(C)C[C@H]2c2ccccc2F)C(=O)N4)cc(C)n1 (racemic) [Compound 306]
Cc1cc(-c2n[nH]c3cc4c(cc23)CN([C@@H]2CN(CC(F)F)C[C@H]2c2ccccc2)C(=O)N4)ccn1 (racemic) [Compound 362]
O=C1Nc2cc3[nH]nc(-c4ccncc4)c3cc2CN1Cc1ccccc1 [Compound 1]
O=C1Nc2cc3[nH]nc(-c4ccncc4)c3cc2CN1Cc1cccc(Cl)c1 [Compound 3]
Cc1cc(-c2n[nH]c3cc4c(cc23)CN(Cc2cccc(Cl)c2)C(=O)N4)ccn1 [Compound 4]
Cc1cc(-c2n[nH]c3cc4[nH]c(=O)c(C(C)c5ccccc5)cc4cc23)ccn1 (centres unmarked) [Compound 22]
Cc1cc(-c2n[nH]c3cc4c(cc23)CN([C@@H]2CCCN(Cc3ccccc3)C2)C(=O)N4)ccn1 [Compound 63]
CCC(c1ccccc1)c1cc2cc3c(-c4ccnc(C)c4)n[nH]c3cc2[nH]c1=O (centres unmarked) [Compound 64]
COc1ncc(-c2n[nH]c3cc4c(cc23)CN(Cc2cccc(Cl)c2)C(=O)N4)cn1 [Compound 68]
Cc1cc(-c2n[nH]c3cc4[nH]c(=O)c([C@H](C)c5ccccc5)cc4cc23)ccn1 [Compound 84]
COc1ncc(-c2n[nH]c3cc4c(cc23)CN([C@@H]2CCCN(Cc3ccccc3F)C2)C(=O)N4)cn1 [Compound 101]
COc1ncc(-c2n[nH]c3cc4c(cc23)CN([C@@H]2CCCN(Cc3c(F)cccc3F)C2)C(=O)N4)cn1 [Compound 102]
COc1ncc(-c2n[nH]c3cc4c(cc23)CN([C@@H]2CCCN(Cc3c(F)cccc3OC)C2)C(=O)N4)cn1 [Compound 103]
COc1ncc(-c2n[nH]c3cc4c(cc23)CN([C@@H]2CCCN(Cc3ccccc3)C2)C(=O)N4)cn1 [Compound 104]
Cc1cc(-c2n[nH]c3cc4c(cc23)CN([C@@H]2CCCN(Cc3ccc(F)c(Cl)c3)C2)C(=O)N4)ccn1 [Compound 134]
Cc1cc(-c2n[nH]c3cc4c(cc23)CN([C@@H]2CCCN(Cc3c(F)cccc3F)C2)C(=O)N4)ccn1 [Compound 143]
COc1cccc(F)c1CN1CCC[C@@H](N2Cc3cc4c(-c5ccnc(C)c5)n[nH]c4cc3NC2=O)C1 [Compound 144]
Cc1cc(-c2n[nH]c3cc4c(cc23)CN([C@@H]2CCN(Cc3ccccc3)C2)C(=O)N4)ccn1 [Compound 146]
[2H]C([2H])(c1ccccc1)N1CCC[C@@H](N2Cc3cc4c(-c5ccnc(C)c5)n[nH]c4cc3NC2=O)C1 [Compound 148]
Cc1cc(-c2n[nH]c3cc4c(cc23)CN(CCNCc2ccccc2)C(=O)N4)ccn1 [Compound 149]
Cc1cc(-c2n[nH]c3cc4c(cc23)CN([C@@H]2CCCN(Cc3ccc(F)cc3)C2)C(=O)N4)ccn1 [Compound 151]
Cc1cc(-c2n[nH]c3cc4c(cc23)CN([C@@H]2CCN(CCc3ccccc3)C2)C(=O)N4)ccn1 [Compound 153]
Cc1cc(-c2n[nH]c3cc4c(cc23)CN([C@@H]2CCCN(C(C)c3ccccc3)C2)C(=O)N4)ccn1 (some centres unmarked) [Compound 154]
Cc1cc(-c2n[nH]c3cc4c(cc23)CN([C@@H]2CCCN(Cc3cccc(Cl)c3)C2)C(=O)N4)ccn1 [Compound 156]
Cc1cc(-c2n[nH]c3cc4c(cc23)CN([C@@H]2CCCN(Cc3ccccc3Cl)C2)C(=O)N4)ccn1 [Compound 158]
COc1cccc(F)c1CN1CC[C@@H](N2Cc3cc4c(-c5ccnc(C)c5)n[nH]c4cc3NC2=O)C1 [Compound 162]
[2H]c1c([2H])c([2H])c(C([2H])([2H])N2CCC[C@@H](N3Cc4cc5c(-c6ccnc(C)c6)n[nH]c5cc4NC3=O)C2)c([2H])c1[2H] [Compound 165]
Cc1cc(-c2n[nH]c3cc4c(cc23)CN([C@@H]2CCCN(Cc3cccc(F)c3)C2)C(=O)N4)ccn1 [Compound 184]
Cc1cc(-c2n[nH]c3cc4c(cc23)CN([C@@H]2CCCN(Cc3cccc(F)c3F)C2)C(=O)N4)ccn1 [Compound 185]
Cc1cc(-c2n[nH]c3cc4c(cc23)CN([C@@H]2CCCN(Cc3cc(F)ccc3F)C2)C(=O)N4)ccn1 [Compound 187]
Cc1cc(-c2n[nH]c3cc4c(cc23)CN([C@@H]2CCCN(Cc3ccc(F)c(F)c3)C2)C(=O)N4)ccn1 [Compound 190]
Cc1cc(-c2n[nH]c3cc4c(cc23)CN([C@@H]2CCCN(Cc3ccc(F)cc3F)C2)C(=O)N4)ccn1 [Compound 196]
Cc1cc(-c2n[nH]c3cc4[nH]c(=O)c(C(C)c5ccc(F)cc5)cc4cc23)ccn1 (centres unmarked) [Compound 197]
Cc1cc(-c2n[nH]c3cc4c(cc23)CN(CC2CCCC2)C(=O)N4)ccn1 [Compound 212]
Cc1cc(-c2n[nH]c3cc4c(cc23)CN(CC2CCCCC2)C(=O)N4)ccn1 [Compound 213]
Cc1cc(-c2n[nH]c3cc4c(cc23)CN([C@@H]2CCN(CC(F)(F)F)C2)C(=O)N4)ccn1 [Compound 214]
Cc1cc(-c2n[nH]c3cc4c(cc23)CN(Cc2cc(F)cc(F)c2)C(=O)N4)cc(C)n1 [Compound 225]
Cc1cc(-c2n[nH]c3cc4c(cc23)CN([C@@H]2CCN(CC(F)(F)F)C2)C(=O)N4)cc(C)n1 [Compound 237]
Cc1cc(-c2n[nH]c3cc4c(cc23)CN(C2CCCC2)C(=O)N4)cc(C)n1 [Compound 239]
Cc1cc(-c2n[nH]c3cc4c(cc23)CN(Cc2cccc(C(F)(F)F)c2)C(=O)N4)ccn1 [Compound 240]
Cc1cc(-c2n[nH]c3cc4c(cc23)CN(C2CCC2)C(=O)N4)ccn1 [Compound 243]
Cc1cc(-c2n[nH]c3cc4c(cc23)CN([C@@H]2CCCN(CC(F)(F)F)C2)C(=O)N4)cc(C)n1 [Compound 244]
Cc1cc(-c2n[nH]c3cc4c(cc23)CN([C@@H]2CCCN(Cc3ccc(C)s3)C2)C(=O)N4)ccn1 [Compound 245]
Cc1cc(-c2n[nH]c3cc4c(cc23)CN([C@@H]2CCCN(Cc3csc(C)c3)C2)C(=O)N4)ccn1 [Compound 251]
Cc1cc(-c2n[nH]c3cc4c(cc23)CN([C@@H]2CCCN(Cc3ccsc3)C2)C(=O)N4)ccn1 [Compound 252]
Cc1cc(-c2n[nH]c3cc4c(cc23)CN([C@@H]2CCCN(Cc3cccs3)C2)C(=O)N4)ccn1 [Compound 254]
